Measured values from patent publication US10004730B2, “Small molecules targeting androgen receptor nuclear localization and/or level in prostate cancer” (University of Pittsburgh-Of the Commonwealth System of …, priority 2011, dated 2018).

Columns and labels:
[1] = test system: endogenous AR; test: Endogenous AR nuclear localization in C4-2 cells by immunofluorescence; type: cell-based; settings: 300 nM, hormone-free
Procedure: (§1) FIGS. 3A and 3B. […] FIG. 3A. […] Localization was assessed by fluorescence microscopy 4 hours after treatment. FIG. 3B.
(§2) FIGS. 6A, 6B, 6C and 6D. FIG. 6A. Structures of compounds SID 14730725 (3-(4-Ethoxy-phenyl)-6,7-dihydro-5H-pyrrolo[1,2-a]imidazole), SID 14742211 (3-(4-Chloro-phenyl)-6,7-dihydro-5H-pyrrolo[1,2-a]imidazole) and SID 3712502 (2-[(3,5-dimethyl-1,2-oxazol-4-yl)methylsulfanyl]-1-[4-(2,3-dimethylphenyl)piperazin-1-yl]ethanone). FIG. 6B. Effect of SID 14730725 and SID 3712502 at indicated concentrations (uM) on nuclear localization of AR in castration-resistant C4-2 prostate cancer cells cultured in complete RPMI media with 10% FBS. C4-2 cells were transfected with GFP-AR and subcellular localization of GFP-AR was determined after overnight treatment using fluorescent microscopy. FIG. 6C. Quantitative analysis of results in FIG. 6B. The percent of transfected cells displaying predominant nuclear localization of GFP-AR at in the presence of various concentrations of SID 14730725 and SID 3712502 were determined. FIG. 6D. SID 14730725 inhibited endogenous AR nuclear localization in C4-2 cells. Endogenous AR was detected by immunofluorescent staining using AR antibody N-20 (Santa Cruz Biotechnology). Nuclei were stained with Hoechst.
(§3) Hsp90 plays an important role in ligand-induced AR nuclear translocation. […]

[2] = test system: C4-2 cells; test: Cell survival, crystal violet staining, C4-2; type: cell-based; settings: 48 hrs
Procedure: (§4) FIGS. 8A and 8B. Effect of SID 14730725 and SID 3712502 on survival of PC3 (FIG. 8A) and C4-2 cells (FIG. 8B). PC3 or C4-2 cells were plated in 12-well plates at 2,500 cell per well in RPMI 1640 complete medium. After 24 hrs, the cells were treated with SID 14730725 or SID 3712502 at the indicated concentrations for 48 hrs. The wells were washed with PBS thrice and fixed in 0.5% crystal Violet in methanol. C=control; treated with vehicle DMSO.

[3] = test system: PC3 cells; test: Cell survival, crystal violet staining, PC3; type: cell-based; settings: 48 hrs
Procedure: as §4

[4] = test system: castration resistant C4-2 xenograft tumors; test: C4-2 xenograft tumors in castrated SCID mice; type: in vivo
Procedure: FIGS. 9A and 9B. FIG. 9A. SID 14730725 inhibits the growth of castration resistant C4-2 xenograft tumors. C4-2 tumors were established by sc injection of 1×10^6 cells resuspended in 0.25 ml RPMI complete media mixed with 0.25 ml of Matrigel into young adult male SCID mice. SCID mice were castrated and randomized when C4-2 tumor volume reach ˜200 ul. Mice received s.c. delivery of SID 14730725 (50 mg/Kg body weight) or vehicle control (corn oil) every other day for 2 weeks, beginning 4 days after castration. Each group consisted of 7 mice. Tumor volumes were measured using micro-calipers and calculated using the formula (length×width^2)/2. FIG. 9B. Body weight of animals was measured every other day. Bars represent the mean±SEM; **p<0.01; Red lines represent data from the animals treated with SID 14730725.

[5] = molecular target: T1, GFP-AR (Homo sapiens, UniProt P10275); test: Localization of transiently transfected GFP-AR by fluorescence microscopy; type: cell-based; settings: for GFP-AR localization: 1 nM
T1 construct: expressed in transfected cells; also PC3 and LNCaP (transient)
T1 sequence (P10275 1-920): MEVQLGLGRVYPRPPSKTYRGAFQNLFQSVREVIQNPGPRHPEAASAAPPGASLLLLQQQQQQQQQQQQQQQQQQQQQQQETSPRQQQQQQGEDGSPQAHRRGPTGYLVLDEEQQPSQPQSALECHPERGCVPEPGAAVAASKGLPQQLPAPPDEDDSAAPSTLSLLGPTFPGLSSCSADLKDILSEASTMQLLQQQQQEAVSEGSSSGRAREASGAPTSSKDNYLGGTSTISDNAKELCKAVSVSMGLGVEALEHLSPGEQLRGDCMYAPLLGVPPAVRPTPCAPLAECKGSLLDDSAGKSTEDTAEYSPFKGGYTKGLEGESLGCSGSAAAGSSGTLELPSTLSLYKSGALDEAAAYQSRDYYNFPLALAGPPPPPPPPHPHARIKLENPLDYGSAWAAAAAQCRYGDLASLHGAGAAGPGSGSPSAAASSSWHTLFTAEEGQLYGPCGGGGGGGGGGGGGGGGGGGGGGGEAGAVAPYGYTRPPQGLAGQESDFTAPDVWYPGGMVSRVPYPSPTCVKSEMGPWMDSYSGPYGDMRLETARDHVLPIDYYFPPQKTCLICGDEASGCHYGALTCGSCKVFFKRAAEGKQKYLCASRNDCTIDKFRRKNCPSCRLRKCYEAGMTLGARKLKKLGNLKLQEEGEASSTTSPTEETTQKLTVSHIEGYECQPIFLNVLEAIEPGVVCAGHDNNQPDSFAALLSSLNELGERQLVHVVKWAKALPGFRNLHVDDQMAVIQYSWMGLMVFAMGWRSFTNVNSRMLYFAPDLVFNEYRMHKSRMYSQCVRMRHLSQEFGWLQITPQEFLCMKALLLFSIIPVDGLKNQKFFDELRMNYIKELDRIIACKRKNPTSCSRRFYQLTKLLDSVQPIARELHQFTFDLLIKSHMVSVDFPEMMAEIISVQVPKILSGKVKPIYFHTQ
Procedure: FIGS. 2A and 2B. Localization of GFP-AR in AR-negative PC3, androgen-sensitive LNCaP, and CRPC C4-2 cells. […] PC3, LNCaP, and C4-2 cells were transfected with GFP-AR and localization was assessed in ligand-free conditions or in the presence of mibolerone by fluorescence microscopy within 24 hours of transfection. The results in FIG. 2B are from five transfections for each cell line in the absence of androgen. At least 50 cells were counted after each transfection. Error bars represent ±SEM.
as §1
FIGS. 6A, 6B, 6C and 6D. FIG. 6A. […] FIG. 6B. […] C4-2 cells were transfected with GFP-AR and subcellular localization of GFP-AR was determined after overnight treatment using fluorescent microscopy. FIG. 6C. Quantitative analysis of results in FIG. 6B. […] FIG. 6D. […] Endogenous AR was detected by immunofluorescent staining using AR antibody N-20 (Santa Cruz Biotechnology). Nuclei were stained with Hoechst.
A prerequisite for AR transcriptional activity is its nuclear localization. To determine whether the subcellular localization of AR was altered during the progression to castration-resistance, AR-negative PC3 prostate cancer cells, androgen-sensitive LNCaP cells and castration-resistant C4-2 cells were transfected with AR tagged to green fluorescent protein (GFP) and localization was assessed by fluorescence microscopy in hormone-free conditions.
Hsp90 plays an important role in ligand-induced AR nuclear translocation. […] To determine if the effect of hsp90 inhibition on endogenous AR in C4-2 cells was similar to its effect on transfected GFP-AR, immunofluorescence experiments were performed.

[6] = molecular target: T2, endogenous AR (Homo sapiens, UniProt P10275, T878A); test: Endogenous AR nuclear localization in C4-2 cells by immunofluorescence; type: cell-based; settings: AR antibody N-20
T2 construct: endogenous in cells; host or cells: C4-2
T2 sequence (P10275 whole entry T878A): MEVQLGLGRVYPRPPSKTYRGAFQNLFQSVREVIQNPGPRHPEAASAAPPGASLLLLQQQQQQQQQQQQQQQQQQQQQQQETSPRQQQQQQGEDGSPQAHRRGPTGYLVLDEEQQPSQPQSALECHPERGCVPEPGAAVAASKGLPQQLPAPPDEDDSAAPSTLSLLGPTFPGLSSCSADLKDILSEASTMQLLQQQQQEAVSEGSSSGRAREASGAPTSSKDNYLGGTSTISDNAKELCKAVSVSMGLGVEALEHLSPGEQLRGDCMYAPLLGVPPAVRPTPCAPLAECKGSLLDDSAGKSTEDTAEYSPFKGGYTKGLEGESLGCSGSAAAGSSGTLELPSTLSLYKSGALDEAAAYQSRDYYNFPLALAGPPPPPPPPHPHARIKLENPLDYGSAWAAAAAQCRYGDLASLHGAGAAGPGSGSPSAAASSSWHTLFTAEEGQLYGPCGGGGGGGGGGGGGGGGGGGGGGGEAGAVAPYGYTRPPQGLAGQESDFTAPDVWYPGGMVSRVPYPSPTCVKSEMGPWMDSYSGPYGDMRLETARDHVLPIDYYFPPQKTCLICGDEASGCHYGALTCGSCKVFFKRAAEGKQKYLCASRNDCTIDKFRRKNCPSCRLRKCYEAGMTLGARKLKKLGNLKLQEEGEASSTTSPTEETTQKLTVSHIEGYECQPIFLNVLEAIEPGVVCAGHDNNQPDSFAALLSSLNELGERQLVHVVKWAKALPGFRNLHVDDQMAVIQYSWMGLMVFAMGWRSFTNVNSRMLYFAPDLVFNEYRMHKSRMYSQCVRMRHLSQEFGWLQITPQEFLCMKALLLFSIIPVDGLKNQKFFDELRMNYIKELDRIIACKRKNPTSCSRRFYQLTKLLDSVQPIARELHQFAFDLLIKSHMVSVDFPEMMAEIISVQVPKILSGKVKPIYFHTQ
Procedure: as §1, §2, §3

[7] = molecular target: T3, GFP-ER (Homo sapiens, UniProt P03372); test: GFP-ER nuclear localization in transfected C4-2 cells; type: cell-based; settings: 24 hours
T3 construct: expressed in transfected cells; host or cells: C4-2
T3 sequence (P03372 whole entry): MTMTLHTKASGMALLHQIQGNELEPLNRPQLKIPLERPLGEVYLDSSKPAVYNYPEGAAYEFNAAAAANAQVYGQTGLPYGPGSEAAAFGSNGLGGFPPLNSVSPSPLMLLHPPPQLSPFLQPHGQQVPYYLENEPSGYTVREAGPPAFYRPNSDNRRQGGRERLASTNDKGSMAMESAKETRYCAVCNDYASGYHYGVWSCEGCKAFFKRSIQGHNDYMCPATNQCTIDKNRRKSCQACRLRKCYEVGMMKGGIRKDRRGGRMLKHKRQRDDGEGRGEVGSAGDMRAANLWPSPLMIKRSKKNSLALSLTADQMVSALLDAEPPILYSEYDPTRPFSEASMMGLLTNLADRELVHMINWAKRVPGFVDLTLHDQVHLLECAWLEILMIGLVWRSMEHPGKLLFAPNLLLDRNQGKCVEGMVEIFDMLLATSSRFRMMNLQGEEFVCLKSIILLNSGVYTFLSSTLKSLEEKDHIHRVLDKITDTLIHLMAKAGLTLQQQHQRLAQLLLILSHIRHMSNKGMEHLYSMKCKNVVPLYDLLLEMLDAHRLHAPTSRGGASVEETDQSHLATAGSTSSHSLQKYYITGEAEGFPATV
Procedure: (§5) FIG. 7. The effect of SID 14730725 and SID 3712502 on nuclear localization of GFP-ER (Top panel) and GFP-GR (Bottom panel) in C4-2 cells. C4-2 cells were transfected with GFP-ER or GFP-GR overnight. The following day the cells were treated with different concentrations (uM) of the small molecules. The cells transfected with GFP-GR were co-treated with 0.5 μM Dexamethasone. Cells were imaged 24 hours after the treatment with the small molecules.

[8] = molecular target: T4, GFP-GR (Homo sapiens, UniProt P04150); test: GFP-GR nuclear localization in transfected C4-2 cells; type: cell-based; settings: co-treated with 0.5 μM Dexamethasone, 24 hours
T4 construct: expressed in transfected cells; host or cells: C4-2
T4 sequence (P04150 whole entry): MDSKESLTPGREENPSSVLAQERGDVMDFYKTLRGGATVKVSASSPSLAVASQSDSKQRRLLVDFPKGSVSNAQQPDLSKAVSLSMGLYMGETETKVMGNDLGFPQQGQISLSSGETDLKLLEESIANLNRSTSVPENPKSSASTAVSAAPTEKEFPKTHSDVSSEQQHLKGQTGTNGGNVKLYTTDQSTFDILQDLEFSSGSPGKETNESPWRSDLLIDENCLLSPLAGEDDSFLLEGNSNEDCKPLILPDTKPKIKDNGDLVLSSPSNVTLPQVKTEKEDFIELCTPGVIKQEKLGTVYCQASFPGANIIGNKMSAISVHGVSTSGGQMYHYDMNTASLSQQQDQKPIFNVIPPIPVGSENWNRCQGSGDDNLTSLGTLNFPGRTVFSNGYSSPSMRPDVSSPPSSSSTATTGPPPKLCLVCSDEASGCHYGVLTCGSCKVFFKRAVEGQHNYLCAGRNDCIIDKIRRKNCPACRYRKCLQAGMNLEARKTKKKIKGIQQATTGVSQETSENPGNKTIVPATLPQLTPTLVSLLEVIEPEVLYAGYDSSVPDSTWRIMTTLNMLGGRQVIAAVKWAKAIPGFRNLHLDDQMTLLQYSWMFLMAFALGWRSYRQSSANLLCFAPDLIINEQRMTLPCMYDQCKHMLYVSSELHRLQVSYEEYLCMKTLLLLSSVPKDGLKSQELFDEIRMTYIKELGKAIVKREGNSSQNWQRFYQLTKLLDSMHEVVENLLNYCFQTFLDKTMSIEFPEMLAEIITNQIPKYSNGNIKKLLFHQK
Procedure: as §5

[9] = molecular target: T1, GFP-AR; test: GFP-AR localization in stably transfected C4-2-GFP-AR sublines / high throughput screen assay; type: cell-based; settings: 5 uM, 24 hours; C4-2 stably transfected with GFP-AR; charcoal-stripped FBS medium
Procedure: The images were acquired 24 hours after the treatment of docetaxel at 5 uM or vehicle DMSO. C4-2 cells stably transfected with GFP-AR were changed to phenol red-free RPMI with 10% charcoal-stripped FBS medium before the addition of docetaxel. Nuclei of the cells were stained with Hoechst dye. Images were acquired by fluorescent microscopy.
Localization of GFP-AR signal was assessed by fluorescence microscopy overnight after treatment.
The C4-2-GFP-AR subclone was cultured in 384-well plates in complete RPMI media. We used regular complete media in high throughput assay because it contains castration levels of androgens. […] Images of GFP signals and Hoechst signals were acquired into separate channels on a Cellomics ArrayScan® V^TI system. Both nuclear and cytoplasmic GFP signals were quantified with the ArrayScan V^TI, which uses an image-based auto-focus system, and has the capability of imaging up to six excitation and emission channels. […] The Cellomics compartmental analysis algorithm was used to quantify the relative distribution of the GFP-AR between nuclear and cytoplasmic cellular compartments. […] The mask was eroded to reduce cytoplasmic contamination within the nuclear area, and the reduced mask was used to quantify the amount of target channel GFP fluorescence within the nucleus. […]

[10] = molecular target: AR (Homo sapiens, UniProt P10275); settings: reported in earlier studies; cited from earlier work

C=CCNC1=C2C[C@@H](C)C[C@H](OC)[C@H](O)[C@@H](C)/C=C(\C)[C@H](OC(N)=O)[C@@H](OC)/C=C\C=C(/C)C(=O)NC(=CC1=O)C2=O [17-AAG, reference compound]
endogenous AR nuclear expression [1]: a decrease in nuclear AR expression was observed

CCOc1ccc(-c2cnc3n2CCC3)cc1 [SID 14730725, 3-(4-Ethoxy-phenyl)-6,7-dihydro-5H-pyrrolo[1,2-a]imidazole]
cytotoxicity [2]: little or no cytotoxicity | cytotoxicity [3]: little or no cytotoxicity | body weight of injected mice ([4]; 50 mg/Kg s.c. every other day): did not affect the body weight | growth of C4-2 xenograft tumor ([4]; 50 mg/Kg s.c. every other day for 2 weeks, castrated SCID mice): able to inhibit the growth of a C4-2 xenograft tumor with statistical significance | blocking AR nuclear localization, dependence on androgen level ([5]; absence or very low levels of androgens): more effective in blocking AR nuclear localization in the absence or in the presence of very low levels of androgens | GFP-AR nuclear localization ([5]; transfected C4-2 cells, complete RPMI with 10% FBS, overnight treatment): effectively inhibited | endogenous AR nuclear localization [6]: inhibited | localization of GFP-ER [7]: no effect | localization of GFP-GR [8]: no effect

CC(=O)O[C@@]12CO[C@@H]1C[C@H](O)[C@@]1(C)C(=O)[C@H](O)C3=C(C)[C@@H](OC(=O)[C@H](O)[C@@H](NC(=O)OC(C)(C)C)c4ccccc4)C[C@@](O)([C@@H](OC(=O)c4ccccc4)[C@H]21)C3(C)C [docetaxel]
AR nuclear localization in castration-resistant C4-2 cells [9]: no significant effect | AR nuclear translocation [10]: can inhibit androgen-dependent AR nuclear translocation

C[C@@H]1CC2=CC(=O)CC[C@@H]2[C@H]2CC[C@@]3(C)[C@@H](CC[C@]3(C)O)[C@@H]21 [mibolerone]
GFP-AR localization ([5]; C4-2 cells): induced complete nuclear localization | GFP-AR localization ([5]; LNCaP cells): induced complete nuclear localization | GFP-AR localization ([5]; PC3 cells): induced complete nuclear localization

C[C@@H]1C[C@H]2O[C@@H]2/C=C\C=C\C(=O)Cc2c(Cl)c(O)cc(O)c2C(=O)O1 [radicicol]
nuclear localization of GFP-AR ([5]; C4-2 cells, data not shown): prevented
